# Results reported in US12421193B2, “GPR52 modulators and methods of use” (Neurocrine Biosciences, Inc., priority 2020, dated 2025).
# Counter-ions that a name gives are not always drawn.
# Target: T1, recombinant human GPR52 (Homo sapiens, UniProt Q9Y2T5)
# T1 construct: expressed in transfected cells
# Assay: TR-FRET cAMP assay (LANCE Ultra cAMP Kit), GPR52 activity
# Type: cell-based
# Conditions: Flp-In-CHO cells stably expressing recombinant human GPR52; cAMP production, normalized to the positive control
# Protocol: TR-FRET cAMP assays were performed using commercially available assay kits (LANCE™ Ultra cAMP Kit). Controls and compounds were solubilized in DMSO using ½ log dilution to generate duplicate 10-point dose response curves in 384-well polypropylene compound plates. Sixty nanoliters of the diluted compounds were transferred into 384-well NBS assay plates and further diluted to 1× with the addition of 2000 cells per well. Flp-In™—CHO cells that stably express recombinant human GPR52.
# Cells were harvested with cell stripper and resuspended in Stimulation Buffer (5 mM HEPES, 0.1% bovine serum albumin (BSA), 0.5 mM IBMX, pH 7.4). After thirty minutes incubation at room temperature, detection reagents were added to each well. Plates were then incubated for 30 minutes at room temperature. The LANCE™ Ultra cAMP assay uses time-resolved fluorescence resonance energy transfer (TR-FRET) to detect cAMVP production; this signal was quantified using a Pherastar multi-mode plate reader.
# Dose-response curves were generated from the fluorescence counts normalized to the positive control. E EC50 values were obtained using a nonlinear regression curve-fitting program.
# T1 sequence (Q9Y2T5 whole entry): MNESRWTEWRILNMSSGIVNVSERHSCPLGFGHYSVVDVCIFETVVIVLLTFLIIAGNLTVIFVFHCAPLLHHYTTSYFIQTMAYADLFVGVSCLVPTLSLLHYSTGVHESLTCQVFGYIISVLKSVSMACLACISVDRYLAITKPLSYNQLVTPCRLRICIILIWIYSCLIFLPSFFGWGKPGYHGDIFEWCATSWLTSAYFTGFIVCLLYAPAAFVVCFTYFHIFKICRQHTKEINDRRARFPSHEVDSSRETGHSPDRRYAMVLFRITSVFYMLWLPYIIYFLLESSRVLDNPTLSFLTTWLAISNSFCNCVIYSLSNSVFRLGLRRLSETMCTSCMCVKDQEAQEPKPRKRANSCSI
row,Structure (SMILES),EC50
1,"Cc1cc(-c2cc(COc3ccc(F)c(F)c3)ccn2)ccc1C(N)=O [Example 48, 4-[4-(3,4-difluorophenoxymethyl)pyridin-2-yl]-2-methylbenzamide]",< 25 nM
2,"Cc1cc(-c2cc(COc3ccc(Cl)cc3)ccn2)ccc1C(N)=O [Example 40, 4-[4-(4-chlorophenoxymethyl)pyridin-2-yl]-2-methylbenzamide]",> 1000 nM
3,"CC(=O)c1ccc(OCc2cc(-c3ccc(C(N)=O)c(C)c3)ccn2)cc1 [Example 86, 4-[2-(4-acetylphenoxymethyl)pyridin-4-yl]-2-methylbenzamide hydrochloride]",< 25 nM
4,"Cc1cc(-c2cc(COc3ccccc3)ccn2)ccc1C(N)=O [Example 25, 4-[4-(phenoxymethyl)pyridin-2-yl]-2-methylbenzamide]",101 to 1000 nM
5,"Cc1cc(OCc2ccnc(-c3ccc(C(N)=O)c(C)c3)c2)ccc1Cl [Example 28, 4-[4-(4-chloro-3-methylphenoxymethyl)pyridin-2-yl]-2-methylbenzamide]",101 to 1000 nM
6,"Cc1cc(-c2cc(COc3ccc(F)c(C#N)c3)ccn2)ccc1C(N)=O [Example 7, 4-[4-(3-cyano-4-fluorophenoxymethyl)pyridin-2-yl]-2-methylbenzamide]",101 to 1000 nM
7,"Cc1cc(-c2cc(COc3cc(F)c(Cl)c(F)c3)ccn2)ccc1C(N)=O [Example 56, 4-[4-(4-chloro-3,5-difluorophenoxymethyl)pyridin-2-yl]-2-methylbenzamide]",< 25 nM
8,"Cc1cc(-c2cc(COc3cncc(C#N)c3)ccn2)ccc1C(N)=O [Example 75, 4-(4-{[(5-cyanopyridin-3-yl)oxy]methyl}pyridin-2-yl)-2-methylbenzamide]",101 to 1000 nM

# Other lines, results leading:
row,EC50,Structure (SMILES)
1,25 to 100 nM,"COc1ccc2ccc(OCc3ccnc(-c4ccc(C(N)=O)c(C)c4)c3)cc2c1 [Example 21, 4-(4-{[(7-methoxynaphthalen-2-yl)oxy]methyl}pyridin-2-yl)-2-methylbenzamide]"
2,101 to 1000 nM,"CC(=O)c1cccc(OCc2ccnc(-c3ccc(C(N)=O)c(C)c3)c2)c1 [Example 43, 4-[4-(3-acetylphenoxymethyl)pyridin-2-yl]-2-methylbenzamide]"
3,< 25 nM,"CCCc1ccccc1OCc1ccnc(-c2ccc(C(N)=O)c(C)c2)c1 [Example 23, 4-[4-(2-propylphenoxymethyl)pyridin-2-yl]-2-methyl benzamide]"
4,101 to 1000 nM,"CC(=O)Nc1cccc(OCc2ccnc(-c3ccc(C(N)=O)c(C)c3)c2)c1 [Example 35, 4-[4-(3-acetamidophenoxymethyl)pyridin-2-yl]-2-methylbenzamide]"
5,101 to 1000 nM,"Cc1cc(-c2cc(COc3cccc(C)c3C)ccn2)ccc1C(N)=O [Example 41, 4-[4-(2,3-dimethylphenoxymethyl)pyridin-2-yl]-2-methylbenzamide]"
6,25 to 100 nM,"Cc1cc(-c2cc(COc3ccc(C(F)(F)F)cc3)ccn2)ccc1C(N)=O [Example 1, 4-{4-[4-(trifluoromethyl)phenoxymethyl]pyridin-2-yl}2-methyl-benzamide hydrochloride]"
7,101 to 1000 nM,"Cc1cc(-c2cc(COc3cccc(S(C)(=O)=O)c3)ccn2)ccc1C(N)=O [Example 5, 4-[4-(3-methanesulfonylphenoxymethyl)pyridin-2-yl]-2-methylbenzamide]"
8,< 25 nM,"NC(=O)c1ccc(-c2cc(COc3ccc(C(F)(F)F)cc3)ccn2)cc1Cl [Example 76, 4-{4-[4-(trifluoromethyl)phenoxymethyl]pyridin-2-yl}2-chlorobenzamide]"
9,101 to 1000 nM,"Cc1cc(-c2ccnc(COc3cc(F)cc(F)c3)c2)ccc1C(N)=O [Example 85, 4-[2-(3,5-difluorophenoxymethyl)pyridin-4-yl]-2-methylbenzamide]"
